Assay results taken from patent US5118681A (priority 1989, dated 1992).
In brackets after ≈: the same amount, converted by molar mass.

Columns and labels:
A.n = assay: Minimum Inhibitory Concentration Test, alternate (Table 4), A.n; type: cell-based, Aspergillus niger; conditions: Aspergillus niger, TSB, 72 hours
In short: (§1)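 Compound in acetone was diluted into TSB and serially diluted 1:1 from 250 ppm down to 0.8 ppm, in duplicate. Plates were inoculated with diluted 24 h culture and incubated 3 days at 30° C; MIC recorded as lowest concentration with no growth.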

A.p = assay: Minimum Inhibitory Concentration Test, alternate (Table 4), A.p; type: cell-based; conditions: Aureobasidium pullulans, TSB, 72 hours
Method: (§2) A 125 μl aliquot of 10,000 ppm test compound in acetone was added to 4.88 ml of TSB to provide a 250 ppm solution. From this solution, 100 μL was transferred to the first row of two microtiter plate columns. Both replicates and five additional compounds were all serially diluted 1:1 to a final concentration of 0.8 ppm in TSB.
(§3) Inoculation was accomplished by diluting a 24 hr Ps fl culture, four mls per 36 mls of phosphate buffer solution. A Dynatech autoinoculator was used to transfer 1.5 μl of this cell suspension to the microtiter plates. The plates were incubated at 30° C. for 3 days before the lowest concentration at which no growth occurs was recorded in the database. The SOK data and MIC test data on Ps.fl, Ps.ae, E.c, and S.a. bacteria and Candida albicans (C.alb), A.n and A.p fungi are listed in Table 4.

Candida albicans (C.alb) = assay: Minimum Inhibitory Concentration Test, alternate (Table 4), C.alb; type: cell-based; conditions: Candida albicans, TSB, 72 hours
Method: as §2, §3

E.c = assay: Minimum Inhibitory Concentration Test, alternate (Table 4), E.c; type: cell-based, Escherichia coli; conditions: Escherichia coli, TSB, 72 hours
Method: as §2, §3

Ps.ae = assay: Minimum Inhibitory Concentration Test, alternate (Table 4), Ps.ae; type: cell-based, Pseudomonas aerugenosa; conditions: Pseudomonas, TSB, 72 hours
Pseudomonas fluorescens = assay: Minimum Inhibitory Concentration Test, alternate (Table 4), Ps.fl; type: cell-based; conditions: Pseudomonas fluorescens, TSB, 72 hours, 30° C
In short: as §1

S.a = assay: Minimum Inhibitory Concentration Test, alternate (Table 4), S.a; type: cell-based, Staphylococcus aureus; conditions: Staphylococcus aureus, TSB, 72 hours
Method: as §2, §3

[1] = system: Pseudoperonospora cubensis; assay: whole plant or invertebrate; type: in vivo; conditions: Pseudoperonospora cubensis, in Cucumis sativus, 168 h; read-out: % control CDM
Piricularia oryzae = assay: whole plant or invertebrate; type: in vivo; conditions: Pyricularia oryzae, read-out: % control RB
[2] = system: Pellicularia filamentosa (f. sp. sasiki); assay: whole plant or invertebrate; type: in vivo; conditions: 120 h; read-out: % control RSB
Phytophthora infestans = assay: whole plant or invertebrate; type: in vivo; conditions: Phytophthora infestans, in Solanum lycopersicum, 96 h, read-out: % control TLB
[3] = system: Erysiphe graminis (f. sp. tritici); assay: whole plant or invertebrate; type: in vivo; conditions: Blumeria graminis; read-out: % control WPM
[4] = system: Puccinia graminis (f. sp. tritici Race 15B-2); assay: whole plant or invertebrate; type: in vivo; conditions: 336 h, read-out: % control WSR
[5] = system: Puccinia recondita (f. sp. tritici Races PKB and PLD); assay: whole plant or invertebrate; type: in vivo; conditions: Puccinia recondita, 240 h; read-out: % control WLR

Structure (SMILES) | MIC (A.n) | MIC (A.p) | MIC (Candida albicans (C.alb)) | MIC (E.c) | MIC (Ps.ae) | MIC (Pseudomonas fluorescens) | MIC (S.a) | pest or weed control at 300 ppm [2] | pest or weed control at 100 ppm (Phytophthora infestans) | pest or weed control at 100 ppm [3] | pest or weed control at 300 ppm [4] | pest or weed control at 200 ppm [1] | pest or weed control at 200 ppm (Piricularia oryzae) | pest or weed control at 200 ppm (Phytophthora infestans) | pest or weed control at 100 ppm (Piricularia oryzae) | pest or weed control at 100 ppm [2] | pest or weed control at 100 ppm [4] | pest or weed control at 100 ppm [5] | further results
CCCCCNC(=O)/C=C\SC(C(C)=O)C(C)=O [Example 3, N-n-pentyl-cis-3-[3-(2,4-pentanedionyl)thio]acrylamide] | 31 to 63 µg/mL (≈ 114 to 232 µM) | 8 µg/mL (≈ 29.5 µM) | 31 µg/mL (≈ 114 µM) | 125 to 250 µg/mL (≈ 461 to 921 µM) | > 500 µg/mL | > 500 µg/mL | 125 µg/mL (≈ 461 µM) | 0% | 40% | 0% | 60% |  |  |  |  |  |  |  | pest or weed control at 300 ppm [1]: 98%; pest or weed control at 300 ppm (Piricularia oryzae): 0%
CCCCCCCNC(=O)/C=C\SC(C(C)=O)C(C)=O [Example 4, N-n-heptyl-cis-3-[3-(2,4-pentanedionyl)thio]acrylamide] | 16 to 63 µg/mL (≈ 53.4 to 210 µM) | < 4 µg/mL | < 4 µg/mL | > 500 µg/mL | > 500 µg/mL | > 500 µg/mL | 63 µg/mL (≈ 210 µM) | 0% |  | 0% | 80% | 98% | 60% | 100% |  |  |  |  | 
CCCCCCNC(=O)/C=C\SC(C(C)=O)C(C)=O [Example 5, N-n-hexyl-cis-3-[3-(2,4-pentanedionyl)thio]acrylamide] | 31 to 63 µg/mL (≈ 109 to 221 µM) | < 4 µg/mL | 16 µg/mL (≈ 56.1 µM) | > 500 µg/mL | > 500 µg/mL | > 500 µg/mL | 63 to 125 µg/mL (≈ 221 to 438 µM) | 0% |  |  | 70% | 100% | 90% | 95% |  |  |  |  | pest or weed control at 300 ppm [3]: 0%
CCCCCCNC(=O)/C(Cl)=C(/Cl)SC(C(C)=O)C(C)=O [Example 7, N-n-hexyl-2,3-dichloro-cis-3-[3-(2,4-pentanedionyl)thio]acrylamide] | 8 to 63 µg/mL (≈ 22.6 to 178 µM) | 8 µg/mL (≈ 22.6 µM) | 31 µg/mL (≈ 87.5 µM) | 125 µg/mL (≈ 353 µM) | 500 µg/mL (≈ 1410 µM) | 250 to 500 µg/mL (≈ 706 to 1410 µM) | 125 µg/mL (≈ 353 µM) | 0% |  |  | 60% |  |  |  |  |  |  |  | pest or weed control at 300 ppm [1]: 95%; pest or weed control at 300 ppm (Phytophthora infestans): 20%; pest or weed control at 300 ppm [3]: 0%
CCCCCCCCNC(=O)/C=C\SC(C(=O)CC)C(=O)CC [Example 8, N-n-octyl-cis-3-[4-(3,5-heptanedionyl)thio]acrylamide] | > 500 µg/mL |  |  |  |  | > 500 µg/mL |  |  |  |  |  | 95% | 95% | 92% |  |  |  |  | pest or weed control at 200 ppm [2]: 0%; pest or weed control at 200 ppm [3]: 0%; pest or weed control at 200 ppm [4]: 60%
CCCCCCCCNC(=O)/C=C\SC1C(=O)CC(C)(C)CC1=O [Example 9, N-n-octyl-cis-3-[2-(5,5-dimethyl-1,3-cyclohexanedionyl)thio]acrylamide] | > 500 µg/mL |  |  |  |  | > 500 µg/mL |  |  |  |  |  | 99% | 50% | 70% |  |  |  |  | pest or weed control at 200 ppm [2]: 0%; pest or weed control at 200 ppm [3]: 0%; pest or weed control at 200 ppm [4]: 60%
CCCCCCCCNC(=O)/C=C\SC(C(C)=O)C(=O)CC (stereo not drawn) [Example 10, N-n-octyl-cis-3-[3-(2,4-hexanedionyl)thio]acrylamide] | > 500 µg/mL |  |  |  |  | > 500 µg/mL |  |  |  |  |  | 100% | 95% | 98% |  |  |  |  | pest or weed control at 200 ppm [2]: 0%; pest or weed control at 200 ppm [3]: 30%; pest or weed control at 200 ppm [4]: 80%
CCCCCCCCNC(=O)/C=C\SC(C(=O)Nc1ccccc1OC)C(=O)OCC (stereo not drawn) [Example 53, N-n-octyl-cis-3-{2-[ethyl-N-(2-methoxyphenyl)malonamido]thio}acrylamide] | 500 µg/mL (≈ 1110 µM) |  |  |  |  | > 500 µg/mL |  |  | 97% | 0% |  |  |  |  | 90% | 0% | 0% | 0% | pest or weed control at 100 ppm [1]: 100%
CCCCCCCCNC(=O)/C=C\SC(C(=O)Nc1cccc(C)c1)C(=O)OCC (stereo not drawn) [Example 54, N-n-octyl-cis-3-{2-[ethyl-N-(3-methylphenyl)malonamido]thio}acrylamide] | > 500 µg/mL |  |  |  |  | > 500 µg/mL |  |  | 80% | 0% |  |  |  |  | 87% | 0% | 0% | 0% | pest or weed control at 100 ppm [1]: 97%
CCCCCCCCNC(=O)/C=C\SC(C(=O)NCCc1ccccn1)C(=O)OCC (stereo not drawn) [Example 66, N-n-octyl-cis-3-{2-[ethyl-N-(2-(2-pyridyl)ethyl)malonamido]thio}acrylamide] | < 2 µg/mL | < 2 µg/mL | < 2 µg/mL | > 250 µg/mL | > 250 µg/mL | > 250 µg/mL | 63 µg/mL (≈ 140 µM) |  | 40% | 0% |  |  |  |  | 0% | 0% |  | 0% | pest or weed control at 100 ppm [1]: 100%
CCCCCCCCNC(=O)/C=C\SC(C(=O)c1ccccc1)C(=O)c1ccccc1 [Example 67, N-n-octyl-cis-3-[2-(1,3-diphenyl-1,3-propanedionyl)thio]acrylamide] |  |  |  |  |  |  |  |  | 0% | 0% |  |  |  |  | 90% | 0% | 0% | 0% | 
CCCCCCCCNC(=O)/C=C\SC(C(=O)c1ccccc1)C(=O)c1cccn1C (stereo not drawn) [Example 68, N-n-octyl-cis-3-{2-[1-phenyl-3-(1-methylpyrroyl-2-yl)-1,3-propanedionyl]thio}acrylamide] |  |  |  |  |  | > 250 µg/mL |  |  | 60% | 0% |  |  |  |  | 80% | 0% | 0% | 0% | 
